Laboratory results as given in ChEMBL document CHEMBL3525974 (Drug Metab Dispos, 2012).

Columns and labels:
Type in all cases: ADME
Liver microsome [1] = experiment: Drug metabolism in human liver microsomes treated with lopinavir at 30 uM preincubated for 5 mins prior NADPH addition measured after 50 mins by MS/MS spectroscopy
Liver microsome [2] = experiment: Retention time in human liver microsomes at 30 uM preincubated for 5 mins prior NADPH addition measured after 50 mins by UPLC-TOFMS analysis
Plasma [3] = experiment: Maximum plasma concentration in healthy human at 400 mg; parameters: dose 400 mg
Plasma [4] = experiment: Maximum plasma concentration in healthy human at 400 mg co-administered with 50 mg ritonavir; parameters: dose 400 mg

Row | Drug metabolism (Liver microsome [1]) | Retention_time (Liver microsome [2]) [min] | Cmax (Plasma [3]) [µg/mL] | Cmax (Plasma [4]) [µg/mL] | Compound
1 | metabolite_detected | 4.99 |  |  | CC(C)[C@@H](C(=O)N[C@@H](Cc1ccccc1)C[C@H](O)[C@H](Cc1ccccc1)NC(=O)/C=N/NC(N)=O)N1CCCNC1=O
2 |  |  | 0.1 | 5.5 | Cc1cccc(C)c1OCC(=O)N[C@@H](Cc1ccccc1)[C@@H](O)C[C@H](Cc1ccccc1)NC(=O)[C@H](C(C)C)N1CCCNC1=O [LOPINAVIR]
